Measurements reported in patent US20250163064A1, “QUINAZOLINE COMPOUNDS AND USES THEREOF AS INHIBITORS OF MUTANT KRAS PROTEINS” (AMGEN INC., priority 2022, published 2025).

Columns and labels:
[1] = target: His-tagged KRAS G12D protein (Homo sapiens (Human), UniProt P01116, G12D); experiment: KRAS G12D TR-FRET Assay; assay type: binding; settings: biotinylated KRPep-2d, 10 μM GDP
Method: Compounds of interest were prepared in a dose-response titration in DMSO, and 80 nL were added via Labcyte Echo to each well of a 384-well plate (Perkin Elmer 6008280). The His-tagged KRAS G12D protein (Amgen) was diluted to 20 nM in Assay Buffer (20 mM HEPES, pH 7.4, 10 mM MgCl2, 50 mM NaCl, 0.1% BSA, 0.01% Tween-20, 10 μM GDP) and 2 μL was added to the appropriate wells of the 384-well plate. The plate was incubated for 30 minutes at rt. Biotinylated KRPep-2d substrate (Amgen) was diluted to […] in Assay Buffer and 2 AL was added to all wells and incubated for 1 hour at room temperature. Detection Reagent (0.4 nM LANCE Eu-W1024 Anti-6×His (Perkin Elmer AD0401), 5 nM streptavidin-d2 (Cisbio 610SADLA)) was prepared in Assay Buffer, then 4 AL was added to the plate and incubated for 1 h at rt. Plates were read using PerkinElmer En Vision (ex: 320 nm, em1: 665 nm, em2: 615 nm) and em1/em2 data was used to generate curve fits using a 4-parameter logistic model to calculate IC50 values.

[2] = target: GDP-bound KRAS protein (aa 1-169), G12D and C118A; SOS-mediated nucleotide exchange (Homo sapiens (Human), UniProt P01116, C118A/G12D); experiment: KRAS G12D Coupled Nucleotide Exchange Assay; assay type: biochemical; settings: 2 h compound pre-incubation, GTP, cRAF AlphaScreen
Method: Purified GDP-bound KRAS protein (aa 1-169), containing both G12D and C118A amino acid substitutions and an N-terminal His-tag, was pre-incubated in assay buffer (25 mM HEPES pH 7.4, 10 mM MgCl2, and 0.01% Triton X-100) with a compound dose-response titration for 2 h. Following compound pre-incubation, purified SOS protein (aa 564-1049) and GTP (Roche 10106399001) were added to the assay wells and incubated for an additional 30 min. […] The assay plates were then read on a PerkinElmer En Vision Multilabel Reader, using AlphaScreen® technology, and data were analyzed using a 4-parameter logistic model to calculate IC50 values.

[3] = system: Phosphorylation of ERK1/2 in AsPC-1 cells; experiment: Phospho-ERK1/2 MSD Assay; assay type: cell-based; settings: Homo sapiens, ASPC1, 2 h, read-out: 2 h p-ERK (AsPC-1 cells), IC50 (μM), AsPC-1 cells, 2 h compound treatment
Method: AsPC-1 (ATCC® CRL-1682TM) cells were cultured in RPMI 1640 Medium (ThermoFisher Scientific 11875093) containing 10% fetal bovine serum (ThermoFisher Scientific 16000044) and 1× penicillin-streptomycin-glutamine (ThermoFisher Scientific 10378016). Sixteen hours prior to compound treatment, AsPC-1 cells were seeded in 96-well cell culture plates at a density of 25,000 cells/well and incubated at 37° C., 5% CO2. A compound dose-response titration was diluted in growth media, added to appropriate wells of a cell culture plate, and then incubated at 37° C., 5% CO2 for 2 hours. Following compound treatment, cells were washed with ice-cold Dulbecco's phosphate-buffered saline, no Ca^2+ or Mg^2+ (ThermoFisher Scientific 14190144), and then lysed in RIPA buffer (50 mM Tris-HCl pH 7.5, 1% Igepal, 0.5% sodium deoxycholate, 150 mM NaCl, and 0.5% sodium dodecyl sulfate) containing protease inhibitors (Roche 4693132001) and phosphatase inhibitors (Roche 4906837001). Phosphorylation of ERK1/2 in compound-treated lysates was assayed using Phospho-ERK1/2 Whole Cell Lysate kits (Meso Scale Discovery K151DWD) according to the manufacturer's protocol. Assay plates were read on a Meso Scale Discovery Sector Imager 6000, and data were analyzed using a 4-parameter logistic model to calculate IC50 values.

GDP-bound KRAS protein (aa 1-169), G12D and C118A; SOS-mediated nucleotide exchange, sequence (P01116 other isoform, or with tags, fused parts or gaps G12D/C118A): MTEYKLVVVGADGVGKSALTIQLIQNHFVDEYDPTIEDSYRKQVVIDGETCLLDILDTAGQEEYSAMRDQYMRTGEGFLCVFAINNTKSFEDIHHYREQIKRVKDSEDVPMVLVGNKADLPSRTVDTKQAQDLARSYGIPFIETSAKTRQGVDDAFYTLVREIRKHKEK
His-tagged KRAS G12D protein, sequence (P01116-2 other isoform, or with tags, fused parts or gaps G12D): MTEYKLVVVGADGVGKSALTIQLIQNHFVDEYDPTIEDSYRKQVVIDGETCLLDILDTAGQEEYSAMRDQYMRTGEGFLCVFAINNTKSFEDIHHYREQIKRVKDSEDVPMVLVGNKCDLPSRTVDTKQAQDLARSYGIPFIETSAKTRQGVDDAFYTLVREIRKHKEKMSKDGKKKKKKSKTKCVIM

Structure (SMILES) | IC50 [1] | IC50 [2] | IC50 [3]
CC1(C(N)=O)CCCN(c2nc(OC[C@@]34CCCN3C[C@H](F)C4)nc3c(F)c(-c4ccc(F)c5sc(N)c(C#N)c45)c(Cl)cc23)C1 (stereo partly drawn) [Example 11, 1-(7-(2-Amino-3-cyano-7-fluorobenzo[b]thiophen-4-yl)-6-chloro-8-fluoro-2-(((2R,7aS)-2-fluorotetrahydro-1H-pyrrolizin1 7a(5H)-yl)methoxy)quinazolin-4-yl)-3-methylpiperidine-3-carboxamide] | 7 nM | 7 nM | 0.677 µM
N#Cc1c(N)sc2c(F)ccc(-c3c(Cl)cc4c(N5CCC[C@@H](S(N)(=O)=O)C5)nc(OC[C@@]56CCCN5C[C@H](F)C6)nc4c3F)c12 [Example 12, (3R)-1-(7-(2-Amino-3-cyano-7-fluorobenzo[b]thiophen-4-yl)-6-chloro-8-fluoro-2-(((2R,7aS)-2-fluorotetrahydro-1H-pyrrolizin-7a(5H)-yl)methoxy)quinazolin-4-yl)piperidine-3-sulfonamide] | 6 nM | 6 nM | 1.81 µM
N#Cc1c(N)sc2c(F)ccc(-c3c(Cl)cc4c(N5CCCC6(CC(=O)N6)C5)nc(OC[C@@]56CCCN5C[C@H](F)C6)nc4c3F)c12 (stereo partly drawn) [Example 13, 2-Amino-4-(6-chloro-8-fluoro-2-(((2R,7aS)-2-fluorotetrahydro-1H-pyrrolizin1 7a(5H)-yl)methoxy)-4-(2-oxo-1,6-diazaspiro[3.5]nonan-6-yl)quinazolin-7-yl)-7-fluorobenzo[b] thiophene-3-carbonitrile] | 5 nM | 5 nM | 2.21 µM
CS(=O)(=O)N1CC2(CCCN(c3nc(OC[C@@]45CCCN4C[C@H](F)C5)nc4c(F)c(-c5ccc(F)c6sc(N)c(C#N)c56)c(Cl)cc34)C2)C1 [Example 14] | 4 nM | 4 nM | 0.729 µM
N#Cc1c(N)sc2c(F)ccc(-c3c(Cl)cc4c(N5CCCCC(S(N)(=O)=O)C5)nc(OC[C@@]56CCCN5C[C@H](F)C6)nc4c3F)c12 (stereo partly drawn) [Example 15, 1-(7-(2-Amino-3-cyano-7-fluorobenzo[b]thiophen-4-yl)-6-chloro-8-fluoro-2-(((2R,7aS)-2-fluorotetrahydro-1H-pyrrolizin-7a(5H)-yl)methoxy)quinazolin-4-yl)azepane-3-sulfonamide] | 3 nM | 4 nM | 0.296 µM
N#Cc1c(N)sc2c(F)ccc(-c3c(Cl)cc4c(N5CCCC(=O)CC5)nc(OC[C@@]56CCCN5C[C@H](F)C6)nc4c3F)c12 [Example 16, 2-Amino-4-(6-chloro-8-fluoro-2-(((2R,7a.S)-2-fluorotetrahydro-1H-pyrrolizin-7a(5H)-yl)methoxy)-4-(4-oxoazepan-1-yl)quinazolin-7-yl)-7-fluorobenzo[b] thiophene-3-carbonitrile] | 2 nM | 3 nM | 0.076 µM
N#Cc1c(N)sc2c(F)ccc(-c3c(Cl)cc4c(N5CCCC6(CCO6)C5)nc(OC[C@@]56CCCN5C[C@H](F)C6)nc4c3F)c12 (stereo partly drawn) [Example 20, 2-Amino-4-(6-chloro-8-fluoro-2-(((2R,7aS)-2-fluorotetrahydro-1H-pyrrolizin-7a(5H)-yl)methoxy)-4-(1-oxa-6-azaspiro[3.5]nonan-6-yl)quinazolin-7-yl)-7-fluorobenzo[b] thiophene-3-carbonitrile] | 22 nM | 26 nM | 1.02 µM
N#Cc1c(N)sc2c(F)ccc(-c3c(Cl)cc4c(N5CCC6CCC(C5)O6)nc(OC[C@@]56CCCN5C[C@H](F)C6)nc4c3F)c12 (stereo partly drawn) [Example 21] | 10 nM | 8 nM | 0.532 µM
N#Cc1c(N)sc2c(F)ccc(-c3c(Cl)cc4c(N5CCCS(=O)(=O)CC5)nc(OC[C@@]56CCCN5C[C@H](F)C6)nc4c3F)c12 [Example 25, 2-Amino-4-(6-chloro-4-(1,1-dioxido-1,4-thiazepan-4-yl)-8-fluoro-2-(((2R,7aS)-2-fluorotetrahydro-1H-pyrrolizin-7a(5H)-yl)methoxy)quinazolin-7-yl)-7-fluorobenzo[b] thiophene-3-carbonitrile] | 3 nM | 3 nM | 0.492 µM
